Reference: US20120004272A1, “BIOCIDAL COMPOSITION OF 2,6-DIMETHYL-M-DIOXANE-4-OL ACETATE AND METHODS OF USE” (priority 2009, published 2012)

How the values were obtained:
[1] = tested on: Pseudomonas aeruginosa (ATCC#15442, ATCC#10145), Enterobacter aerogenes, Escherichia coli, Klebsiella pneumoniae, Staphylococcus aureus, Salmonella …; test: Preservative efficacy (multi-challenge, 96-deep well) in water-based latex paint, pH 7.4; assay type: cell-based
[2] = tested on: Pseudomonas aeruginosa (ATCC#15442, ATCC#10145), Enterobacter aerogenes, Escherichia coli, Klebsiella pneumoniae, Staphylococcus aureus, Salmonella …; test: Preservative efficacy (multi-challenge, 96-deep well) in spinning finish emulsion; assay type: cell-based; settings: Day 27, post 4th microbial challenge; ppm active
[3] = Day 15, after four bacterial challenges, ppm active
[4] = Day 20, after four bacterial challenges, ppm active

Compound: CC(=O)OC1CC(C)OC(C)O1 (stereo not shown) [DMX, 2,6-Dimethyl-m-dioxan-4-ol acetate]
- DMX alone (ppm), concentration required for ≧4 log10 microbial kill [1, 3]: 1740 ppm
- log10 viable microorganisms, DMX alone ([1]; Day 15, DMX 102 ppm): 7 log10
- log10 viable microorganisms, DMX alone ([1]; Day 15, DMX 153 ppm): 7 log10
- log10 viable microorganisms, DMX alone ([1]; Day 15, DMX 229 ppm): 8 log10
- log10 viable microorganisms, DMX alone ([1]; Day 15, DMX 344 ppm): 8 log10
- log10 viable microorganisms, DMX alone ([1]; Day 15, DMX 516 ppm): 7 log10
- log10 viable microorganisms, DMX alone ([1]; Day 15, DMX 773 ppm): 8 log10
- log10 viable microorganisms, DMX alone ([1]; Day 15, DMX 1160 ppm): 5 log10
- log10 viable microorganisms, DMX alone ([1]; Day 15, DMX 1740 ppm): 0 log10
- DMX alone (ppm), concentration required for ≧4 log10 microbial kill [1, 4]: 1740 ppm
- log10 viable microorganisms, DMX alone ([1]; Day 20, DMX 102 ppm): 8 log10
- log10 viable microorganisms, DMX alone ([1]; Day 20, DMX 153 ppm): 8 log10
- log10 viable microorganisms, DMX alone ([1]; Day 20, DMX 229 ppm): 8 log10
- log10 viable microorganisms, DMX alone ([1]; Day 20, DMX 344 ppm): 8 log10
- log10 viable microorganisms, DMX alone ([1]; Day 20, DMX 516 ppm): 8 log10
- log10 viable microorganisms, DMX alone ([1]; Day 20, DMX 773 ppm): 8 log10
- log10 viable microorganisms, DMX alone ([1]; Day 20, DMX 1160 ppm): 8 log10
- log10 viable microorganisms, DMX alone ([1]; Day 20, DMX 1740 ppm): 4 log10
- DMX alone (ppm), concentration necessary for ≧6 log10 microbial kill [2]: 1339 ppm

Compound: ClC=CC[N+]12CN3CN(CN(C3)C1)C2.[Cl-] [CTAC]
- CTAC alone (ppm), concentration necessary for ≧6 log10 microbial kill [2]: 582 ppm

Compound: CCC12COCN1COC2 [EBCO, 7-Ethyl-bicyclooxazolidine]
- EBCO alone (ppm), concentration required for ≧4 log10 microbial kill [1, 4]: 1920 ppm
- log10 viable microorganisms, EBCO alone score ([1]; Day 20, EBCO 112 ppm): 8 log10
- log10 viable microorganisms, EBCO alone score ([1]; Day 20, EBCO 169 ppm): 8 log10
- log10 viable microorganisms, EBCO alone score ([1]; Day 20, EBCO 252 ppm): 8 log10
- log10 viable microorganisms, EBCO alone score ([1]; Day 20, EBCO 379 ppm): 7 log10
- log10 viable microorganisms, EBCO alone score ([1]; Day 20, EBCO 569 ppm): 7 log10
- log10 viable microorganisms, EBCO alone score ([1]; Day 20, EBCO 853 ppm): 8 log10
- log10 viable microorganisms, EBCO alone score ([1]; Day 20, EBCO 1280 ppm): 7 log10
- log10 viable microorganisms, EBCO alone score ([1]; Day 20, EBCO 1920 ppm): 0 log10

Compound: CC1(C)COCN1 [DMO, 4,4-Dimethyloxazolidine]
- DMO alone (ppm), concentration required for ≧4 log10 microbial kill [1, 3]: 308 ppm
- log10 viable microorganisms, DMO alone score ([1]; Day 15, DMO 91 ppm): 8 log10
- log10 viable microorganisms, DMO alone score ([1]; Day 15, DMO 137 ppm): 7 log10
- log10 viable microorganisms, DMO alone score ([1]; Day 15, DMO 205 ppm): 6 log10
- log10 viable microorganisms, DMO alone score ([1]; Day 15, DMO 308 ppm): 0 log10
- log10 viable microorganisms, DMO alone score ([1]; Day 15, DMO 463 ppm): 0 log10
- log10 viable microorganisms, DMO alone score ([1]; Day 15, DMO 693 ppm): 0 log10
- log10 viable microorganisms, DMO alone score ([1]; Day 15, DMO 1040 ppm): 0 log10
- log10 viable microorganisms, DMO alone score ([1]; Day 15, DMO 1560 ppm): 0 log10
- DMO alone (ppm), concentration necessary for ≧6 log10 microbial kill [2]: 355 ppm

Compound: O=[N+]([O-])C(CO)(CO)CO [TN, 2-Hydroxymethyl-2-nitro-1,3-propanediol]
- TN alone (ppm), concentration necessary for ≧6 log10 microbial kill [2]: 592 ppm
